In patent US8211445B2, “PSM peptides as vaccine targets against methicillin-resistant Staphylococcus” (The United States of America, as represented by the …, priority 2007, dated 2012):

Columns and labels:
[1] = system: human neutrophils; assay: Neutrophil chemotaxis (transwell); assay type: cell-based; settings: PSM-mec vs PSMα3; range similar to other α-type PSMs, in general higher than β-type PSMs (FIG. 21A)
Method: Neutrophils were subjected to a brief hypotonic shock with pyrogen-free water (Sigma), washed, and suspended at 5×10^6 cells/ml in HBSS containing 0.05% human serum albumin (HSA; CLB). Chemotaxis of neutrophils was determined by using fluorescently-labeled neutrophils that migrated through a membrane fitted into an insert of a 24-well microtiter plate transwell system (Costar) containing a prewetted 3-μm-pore-size polycarbonate filter as described (de Haas et al., J Exp Med 199, 687-95, 2004). For measurement of calcium ion fluxes, 5×10^6 neutrophils/ml were loaded with 2 μM Fluo-3-AM (Molecular Probes) in RPMI containing 0.05% HSA (RPMI-HSA) for 20 minutes at room temperature under agitation, washed twice with buffer, and resuspended in RPMI-HSA at 10^6 cells/ml. Calcium fluxes were analyzed with a FACScalibur (Becton Dickinson).
Neutrophils were subjected to a brief hypotonic shock with pyrogen-free water (Sigma), washed, and suspended at 5×10^6 cells/ml in HBSS containing 0.05% human serum albumin (HAS; CLB). Chemotaxis of neutrophils was determined by using fluorescently-labeled neutrophils that migrated through a membrane fitted into an insert of a 24-well microtiter plate transwell system (Costar) containing a prewetted 3-μm-pore-size polycarbonate filter. […] Calcium fluxes were analyzed with a FACScalibur (Becton Dickinson). […]

[2] = system: human neutrophils; assay: Scanning electron microscopy of neutrophils exposed to PSMα3; assay type: cell-based; settings: PSMα3 10 μg/ml
Method: FIG. 4 includes several panels showing PSM-induced lysis of human neutrophils. FIG. 4A is a graph showing human neutrophil lysis, measured by release of lactate dehydrogenase (LDH) activity, with synthetic PSM peptides at 10 μg/ml. FIG. 4B is a graph showing human neutrophil lysis, measured by release of LDH activity, with culture filtrates of wild-type, PSM gene deletion and complemented CA- and HA-MRSA strains. Data represent means±SEM of at least three independent measurements. FIG. 4C is a series of digital images showing in vitro lysis of human neutrophils with synthetic PSMα3. Neutrophils were incubated with PSMα3 (10 μg/ml) and observed by scanning electron microscopy at the time intervals indicated, in comparison to untreated controls. […] The peak at ˜190 nm is indicative of α-helicity. […] FIG. 4F is a pair of graphs showing the infiltration and killing of […] leukocytes in a murine peritonitis model. Two hours after infection with the bacteria, neutrophils and monocytes were counted in peritoneal exudates, and dead and live cells were distinguished, using flow cytometry. The number of mice was n=5 for all samples except n=4 for MW2 samples (the results from one mouse in the MW2 wild-type and PSMα deletion strain samples were not included because of extensive bleeding). […]

[3] = Immunization of mice with synthetic PSM peptides, PSM-specific antibodies by ELISA; assay type: in vivo, mice (BALB/c); settings: 50 μg s.c. with CFA, booster with IFA
Method: In order to determine the immunogenicity of synthetic PSM peptides, mice (BALB/c, female, 6-8 weeks) were injected subcutaneously with 50 μg (100 μL) of each PSM peptide in sterile PBS emulsified with complete Freund's adjuvant (CFA) for primary immunization. A booster injection containing incomplete Freund's adjuvant (IFA) instead of CFA was given to the animals 14 days after the primary immunization. The control group of animals received injections of sterile PBS and adjuvants only. Three blood withdrawals were performed on each mouse. The first two blood samples were collected via retro-orbital route immediately before primary injection and before booster injection, respectively. All animals were sacrificed 21 days after booster injection for the terminal blood samples.
PSM-specific antibodies in mouse serum were determined by ELISA assays. Microtiter plates (Nunc 96-well flat-bottom MaxiSorp plates) were coated with 20 μg/ml of each synthetic PSM peptides in PBS plus 0.05% NaN3, and incubated overnight at 4° C. The plates were washed with PBS containing 0.05% Tween-20, and blocked for 1 hour at room temperature with 1% BSA (Sigma) and 0.05% NaN3 in PBS. Serum samples were diluted in assay diluent (Tris-buffered saline containing 0.1% BSA and 0.05% Tween-20, pH 7.2), and added to the washed wells at 100 μl/well for an incubation of 2 hours at room temperature. Plates were washed again and HRP-labeled goat anti-mouse IgG (R&D Systems) and goat anti-mouse IgM (Jackson ImmunoResearch Laboratory) were diluted in assay diluent and added to the plates at 100 μl/well for an incubation of 1 hour at room temperature in order to detect PSM specific mouse IgG and IgM, respectively. Plates were washed again and a substrate solution containing equal volume of Tetramethylbenzidine and H2O2 was added to the plates at 100 μl/well for color development. The reaction was terminated by adding 50 μl of 1 M H2SO4 to each well, and optical density (O.D.) was measured at 450 nm using an ELISA plate reader.

## fMEFVAKLFKFFKDLLGKFLGNN [PSMα3]
[1]
  chemotactic activities: most potent
[2]
  state of neutrophils after 60 minutes: many neutrophils were completely destroyed
  time of exposure until signs of priming and compromised integrity of the plasma membrane: ≤ 5 min
[3]; N-formylated synthetic PSM peptides, BALB/c mice (FIG. 11)
  specific antibody production in vivo: most robust antibody production
[3]; non N-formylated synthetic PSM peptides, BALB/c mice (FIG. 12)
  specific antibody production in vivo: strongest response
